Targets include PRKCD (Homo sapiens, UniProt Q05655); STK16 (Homo sapiens, UniProt O75716); PLK1 (Homo sapiens, UniProt P53350); PIM2 (Homo sapiens, UniProt Q9P1W9).
Common to all, as to experiment: biochemical
Holding throughout (set-up): DiscoveRx KINOMEscan active site-directed competition binding; percent of control kinase bound to immobilised ligand

Test [1] addresses T1, ABL1(M351T)-phosphorylated (Homo sapiens, UniProt P00519, M351T).
T1 construct: phosphorylated

For the next test, the target named is T2, MUSK (Homo sapiens, UniProt O15146).
T2 sequence (O15146 1-869): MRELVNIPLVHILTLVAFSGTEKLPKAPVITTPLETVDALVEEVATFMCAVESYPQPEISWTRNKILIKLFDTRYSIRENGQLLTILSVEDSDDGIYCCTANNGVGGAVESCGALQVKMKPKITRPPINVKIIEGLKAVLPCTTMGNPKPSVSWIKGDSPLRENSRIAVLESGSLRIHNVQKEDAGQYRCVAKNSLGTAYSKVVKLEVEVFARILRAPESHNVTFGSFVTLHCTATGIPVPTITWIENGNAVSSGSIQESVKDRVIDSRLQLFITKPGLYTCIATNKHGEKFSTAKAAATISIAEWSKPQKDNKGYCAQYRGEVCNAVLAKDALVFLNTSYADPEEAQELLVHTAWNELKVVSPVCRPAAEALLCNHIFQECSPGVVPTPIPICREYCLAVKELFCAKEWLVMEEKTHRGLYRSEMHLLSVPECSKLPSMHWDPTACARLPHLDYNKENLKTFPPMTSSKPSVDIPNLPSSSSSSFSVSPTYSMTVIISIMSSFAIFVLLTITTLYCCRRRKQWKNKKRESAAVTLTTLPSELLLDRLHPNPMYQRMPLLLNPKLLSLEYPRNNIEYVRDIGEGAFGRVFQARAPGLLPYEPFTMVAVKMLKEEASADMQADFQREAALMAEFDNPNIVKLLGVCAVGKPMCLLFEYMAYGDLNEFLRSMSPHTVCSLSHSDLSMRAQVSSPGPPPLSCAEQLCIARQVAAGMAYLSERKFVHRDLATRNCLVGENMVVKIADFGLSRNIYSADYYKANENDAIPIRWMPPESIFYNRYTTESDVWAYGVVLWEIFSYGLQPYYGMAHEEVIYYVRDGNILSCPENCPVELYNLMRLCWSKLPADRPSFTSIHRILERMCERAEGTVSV

A further test concerns the target T3, VPS34 (Homo sapiens, UniProt Q8NEB9).
T3 construct: gene PIK3C3

Another test addresses T4, TAOK3 (Homo sapiens, UniProt Q9H2K8).
T4 sequence (Q9H2K8 1-898): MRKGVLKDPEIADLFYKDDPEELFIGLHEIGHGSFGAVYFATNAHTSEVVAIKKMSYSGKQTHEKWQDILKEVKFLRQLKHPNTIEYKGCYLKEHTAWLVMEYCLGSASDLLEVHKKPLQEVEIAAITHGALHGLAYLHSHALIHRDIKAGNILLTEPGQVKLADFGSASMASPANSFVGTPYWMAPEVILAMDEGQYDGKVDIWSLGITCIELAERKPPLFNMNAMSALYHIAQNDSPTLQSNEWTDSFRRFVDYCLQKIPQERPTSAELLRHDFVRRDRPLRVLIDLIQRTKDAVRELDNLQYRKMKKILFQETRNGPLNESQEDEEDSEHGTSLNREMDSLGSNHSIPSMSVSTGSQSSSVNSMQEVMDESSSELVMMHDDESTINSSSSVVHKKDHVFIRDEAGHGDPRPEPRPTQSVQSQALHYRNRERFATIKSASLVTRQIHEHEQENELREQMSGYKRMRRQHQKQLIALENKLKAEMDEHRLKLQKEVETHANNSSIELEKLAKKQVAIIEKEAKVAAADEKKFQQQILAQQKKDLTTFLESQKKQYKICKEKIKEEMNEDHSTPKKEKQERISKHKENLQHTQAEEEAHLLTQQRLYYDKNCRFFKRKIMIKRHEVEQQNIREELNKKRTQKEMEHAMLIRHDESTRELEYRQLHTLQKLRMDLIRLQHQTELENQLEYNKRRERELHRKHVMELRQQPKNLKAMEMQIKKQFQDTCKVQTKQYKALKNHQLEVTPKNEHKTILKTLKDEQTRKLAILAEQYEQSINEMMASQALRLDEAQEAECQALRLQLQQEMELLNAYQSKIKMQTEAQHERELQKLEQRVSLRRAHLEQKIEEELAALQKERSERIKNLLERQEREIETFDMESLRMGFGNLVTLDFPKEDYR

The mark [2] stands for this setting: read-out: Niraparib (MK-4827) / %Ctrl @ 10000nM.
The mark [3] stands for this setting: read-out: Olaparib / %Ctrl @ 10000nM.
Setting [4] is: read-out: Rucaparib / %Ctrl @ 10000nM, binding competition, % of control.
[5] abbreviates: read-out: Talazoparib (BMN 673) / %Ctrl @ 10000nM.

Read-outs that look alike come from different tables or passages of the source.

STK16, sequence (O75716 whole entry): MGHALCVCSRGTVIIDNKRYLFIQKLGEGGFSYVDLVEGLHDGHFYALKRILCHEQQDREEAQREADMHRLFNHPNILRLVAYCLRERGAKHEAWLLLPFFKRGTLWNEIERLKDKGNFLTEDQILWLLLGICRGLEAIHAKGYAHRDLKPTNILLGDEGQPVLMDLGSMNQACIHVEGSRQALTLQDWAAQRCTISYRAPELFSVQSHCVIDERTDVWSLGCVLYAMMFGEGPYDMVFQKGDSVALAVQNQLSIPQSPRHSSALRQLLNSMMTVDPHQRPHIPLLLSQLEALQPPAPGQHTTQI
PLK1, sequence (P53350 whole entry): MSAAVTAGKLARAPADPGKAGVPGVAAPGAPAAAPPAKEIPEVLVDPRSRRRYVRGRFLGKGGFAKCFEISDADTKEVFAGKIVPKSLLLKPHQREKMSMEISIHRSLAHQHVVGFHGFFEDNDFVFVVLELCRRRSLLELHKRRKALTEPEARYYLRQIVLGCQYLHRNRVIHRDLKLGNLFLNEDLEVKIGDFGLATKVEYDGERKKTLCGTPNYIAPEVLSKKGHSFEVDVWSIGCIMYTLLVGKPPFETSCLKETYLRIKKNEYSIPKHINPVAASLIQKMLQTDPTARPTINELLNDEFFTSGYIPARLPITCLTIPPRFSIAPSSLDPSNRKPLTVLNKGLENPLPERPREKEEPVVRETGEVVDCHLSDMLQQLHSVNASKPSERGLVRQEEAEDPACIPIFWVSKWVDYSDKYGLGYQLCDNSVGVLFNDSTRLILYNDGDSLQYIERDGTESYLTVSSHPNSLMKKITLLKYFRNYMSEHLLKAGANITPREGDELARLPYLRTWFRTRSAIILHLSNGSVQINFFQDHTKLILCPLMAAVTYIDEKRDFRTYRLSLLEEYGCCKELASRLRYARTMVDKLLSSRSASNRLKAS
PRKCD, sequence (Q05655 whole entry): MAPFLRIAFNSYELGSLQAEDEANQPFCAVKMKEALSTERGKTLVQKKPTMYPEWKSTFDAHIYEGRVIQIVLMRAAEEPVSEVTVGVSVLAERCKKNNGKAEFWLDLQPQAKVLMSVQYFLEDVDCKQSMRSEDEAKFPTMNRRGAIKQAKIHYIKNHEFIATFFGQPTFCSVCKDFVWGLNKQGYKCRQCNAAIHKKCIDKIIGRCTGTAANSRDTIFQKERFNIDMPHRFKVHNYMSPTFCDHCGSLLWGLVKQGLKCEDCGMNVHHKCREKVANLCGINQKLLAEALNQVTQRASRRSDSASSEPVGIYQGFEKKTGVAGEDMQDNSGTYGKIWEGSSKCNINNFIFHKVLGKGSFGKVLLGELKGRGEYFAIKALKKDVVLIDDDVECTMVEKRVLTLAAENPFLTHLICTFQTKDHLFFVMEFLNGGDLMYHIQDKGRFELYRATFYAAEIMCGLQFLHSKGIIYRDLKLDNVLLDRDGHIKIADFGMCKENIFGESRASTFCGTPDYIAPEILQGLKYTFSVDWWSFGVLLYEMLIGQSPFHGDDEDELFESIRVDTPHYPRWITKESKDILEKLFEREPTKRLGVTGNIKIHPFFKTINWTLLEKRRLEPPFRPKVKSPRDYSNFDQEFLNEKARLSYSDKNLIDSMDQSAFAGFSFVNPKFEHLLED
PIM2, sequence (Q9P1W9 whole entry): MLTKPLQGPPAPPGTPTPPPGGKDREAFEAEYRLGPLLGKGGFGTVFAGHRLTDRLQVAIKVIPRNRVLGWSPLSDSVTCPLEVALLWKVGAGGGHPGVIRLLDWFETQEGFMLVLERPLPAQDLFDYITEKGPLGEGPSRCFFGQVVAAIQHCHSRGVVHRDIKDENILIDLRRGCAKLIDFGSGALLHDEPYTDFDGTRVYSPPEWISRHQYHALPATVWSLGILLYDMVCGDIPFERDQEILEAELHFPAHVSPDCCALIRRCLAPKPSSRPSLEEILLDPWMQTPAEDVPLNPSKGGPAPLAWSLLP
T3 sequence (Q8NEB9 whole entry): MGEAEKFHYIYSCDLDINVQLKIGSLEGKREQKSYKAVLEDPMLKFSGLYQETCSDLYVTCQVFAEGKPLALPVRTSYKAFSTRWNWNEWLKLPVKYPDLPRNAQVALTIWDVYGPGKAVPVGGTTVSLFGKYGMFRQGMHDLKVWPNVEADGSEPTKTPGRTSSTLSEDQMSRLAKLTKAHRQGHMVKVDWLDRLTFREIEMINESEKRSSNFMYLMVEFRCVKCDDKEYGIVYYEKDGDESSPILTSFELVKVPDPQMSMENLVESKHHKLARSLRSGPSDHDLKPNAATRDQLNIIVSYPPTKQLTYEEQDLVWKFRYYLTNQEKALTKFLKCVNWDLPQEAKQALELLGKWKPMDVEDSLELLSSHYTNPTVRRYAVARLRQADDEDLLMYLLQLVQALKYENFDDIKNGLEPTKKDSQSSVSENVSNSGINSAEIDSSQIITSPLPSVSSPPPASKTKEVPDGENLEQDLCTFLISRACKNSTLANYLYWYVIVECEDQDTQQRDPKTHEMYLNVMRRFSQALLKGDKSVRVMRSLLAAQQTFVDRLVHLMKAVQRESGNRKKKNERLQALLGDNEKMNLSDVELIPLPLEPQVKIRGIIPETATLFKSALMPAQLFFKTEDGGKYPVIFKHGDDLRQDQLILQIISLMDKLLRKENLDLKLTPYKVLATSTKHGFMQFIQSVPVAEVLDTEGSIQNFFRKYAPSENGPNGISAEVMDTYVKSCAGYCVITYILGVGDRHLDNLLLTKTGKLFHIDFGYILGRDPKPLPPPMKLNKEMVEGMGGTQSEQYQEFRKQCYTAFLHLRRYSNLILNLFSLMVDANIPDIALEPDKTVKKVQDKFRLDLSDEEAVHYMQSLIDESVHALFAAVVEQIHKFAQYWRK

On to `NC(=O)c1cccc2cn(-c3ccc([C@@H]4CCCNC4)cc3)nc12` [Niraparib], for which the percent of control binding at 10 µM on PRKCD (setting [2]) came to 93%; in test [1] (setting [2]), 100%; on STK16 (setting [2]) it was 93%; at PLK1 (setting [2]), 100%; on PIM2 (setting [2]), 13%; at MUSK (setting [2]), 82%. The percent of control binding at 10 µM was found to be 14% at VPS34 (setting [2]) and 100% at TAOK3 (setting [2]).
Regarding `O=C(c1cc(Cc2n[nH]c(=O)c3ccccc23)ccc1F)N1CCN(C(=O)C2CC2)CC1` [Olaparib], the percent of control binding at 10 µM at PRKCD (setting [3]) is 95%; in test [1] (setting [3]) it was 91%; at STK16 (setting [3]), 83%; on PLK1 (setting [3]), 85%; at PIM2 (setting [3]), 100%; on MUSK (setting [3]) it was 100%. The results for the percent of control binding at 10 µM at VPS34 (setting [3]) and at TAOK3 (setting [3]) were 90% and 94%, respectively.
As for `CNCc1ccc(-c2[nH]c3cc(F)cc4c3c2CCNC4=O)cc1` [Rucaparib], the percent of control binding at 10 µM was determined as 83% at PRKCD (setting [4]); 75% in test [1] (setting [4]); 100% on STK16 (setting [4]); 66% on PLK1 (setting [4]); 36% on PIM2 (setting [4]); 96% at MUSK (setting [4]). The figures for the percent of control binding at 10 µM at VPS34 (setting [4]) and at TAOK3 (setting [4]) were 80% and 91%, respectively.
For the compound `Cn1ncnc1[C@H]1c2n[nH]c(=O)c3cc(F)cc(c23)N[C@@H]1c1ccc(F)cc1` [Talazoparib], the percent of control binding at 10 µM stood at 86% on PRKCD (setting [5]); 98% in test [1] (setting [5]); 90% on STK16 (setting [5]); 89% on PLK1 (setting [5]); 98% at PIM2 (setting [5]); 100% at MUSK (setting [5]). Besides, the percent of control binding at 10 µM on VPS34 (setting [5]) and on TAOK3 (setting [5]) was 100% in each case.

Values taken from paper PMC7026418, “The kinase polypharmacology landscape of clinical PARP inhibitors” (Scientific Reports, 2020).
